We go through 10 molecules from ChEMBL document CHEMBL1201862, “PubChem BioAssay data set” (2004).

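96-well plates; 48 h exposure; 5 concentrations. Endpoints by linear interpolation between flanking doses. Not reached: highest tested concentration assigned. Here, GI50 denotes the concentration required for 50% inhibition of growth.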 Calls of active or inactive are those of the source. Rule as the data show it: active = GI50 up to about 1.1 µM and inactive = higher.

Assay in all cases: growth of human tumour cells (NCI), 48 h
Experiment [1] concerns Malme-3M.
In experiment [2] the test system is EKVX.
The test system of experiment [3] is MOLT-4.
Experiment [4] deals with A498.
The subject of experiment [5] is NCI-H23.
Experiment [6] has as its system KM12.
In experiment [7] the test system is Hs-578T.
Experiment [8] concerns OVCAR-5.
Experiment [9] deals with MDA-MB-231.
Experiment [10] concerns COLO 205.
The subject of experiment [11] is U-251.
In experiment [12] the test system is SK-MEL-28.
Experiment [13] has as its system LOX IMVI.
The subject of experiment [14] is HL-60.
The subject of experiment [15] is RPMI-8226.
Experiment [16] deals with UACC-62.
Experiment [17] relates to MDA-MB-435.
Experiment [18] relates to HCC 2998.
The test system of experiment [19] is NCI/ADR-RES.

Turning to `CCN(CC)c1ccc(/C=C(\C#N)c2nc(N)nc(N3N=C(C)CC3(C)C)n2)cc1`, the GI50 in [1] was 18.2 µM (inactive); in experiment [2] it was 24.4 µM (inactive); in experiment [3], 10.7 µM (inactive); in [4], 16.2 µM (inactive); in experiment [5], 27.5 µM (inactive); in experiment [6], 13.1 µM (inactive). For the same molecule, the GI50 in experiment [7] was 2.4 µM (inactive); in [8] it was 26.7 µM (inactive); in [9], 13.6 µM (inactive); in experiment [10], 29.6 µM (inactive); in experiment [11], 13.3 µM (inactive); in experiment [12], 36.1 µM (inactive). Further, the GI50 is 14 µM (inactive) in [13]; 43.7 µM (inactive) in experiment [14]; 32 µM (inactive) in experiment [15]; 30.3 µM (inactive) in [16]; 21.1 µM (inactive) in [17]; 30.1 µM (inactive) in experiment [18]. Moreover, the GI50 in [19] is 15.8 µM (inactive).

As for `Cc1cc(C)n2nc3nc(N)c(C#N)c(-c4ccccc4)c3c2n1`, the GI50 in experiment [1], in experiment [2], in [3], in experiment [4], in experiment [5] and in experiment [6] was > 100 µM (inactive) each time. Also, the GI50 in experiment [7], in [8], in [9], in experiment [10], in experiment [11] and in experiment [12] was > 100 µM (inactive) each time. In addition, the GI50 in [13], in experiment [14], in experiment [15], in [16], in [17] and in experiment [18] was > 100 µM (inactive) in each case. In addition, the GI50 in experiment [19] was > 100 µM (inactive).

For `CCOC(=O)C(=O)/C(=C/N1C(=O)CC(=O)NC1=S)C(=O)OCC`, the GI50 is > 100 µM (inactive) in experiment [1]; > 100 µM (inactive) in experiment [2]; > 100 µM (inactive) in [3]; 83.6 µM (inactive) in experiment [4]; > 100 µM (inactive) in experiment [5]; > 100 µM (inactive) in experiment [6]. Besides, the GI50 in experiment [7] is 18.7 µM (inactive); in [8], > 100 µM (inactive); in experiment [9] it was > 100 µM (inactive); in [10] it was > 100 µM (inactive); in [11] it was > 100 µM (inactive); in experiment [12], > 100 µM (inactive). The GI50 in experiment [13], in [14], in [15], in experiment [16], in [17] and in [18] was > 100 µM (inactive) in each case. Besides, the GI50 in experiment [19] is > 100 µM (inactive).

Regarding `COC(=O)[C@@H]1C[C@H]([Se]c2ccccc2)CN1S(=O)(=O)c1ccc(C)cc1`, the GI50 is > 100 µM (inactive) in [1]; > 100 µM (inactive) in experiment [2]; 35.7 µM (inactive) in [3]; > 100 µM (inactive) in experiment [4]; > 100 µM (inactive) in [5]; 68.9 µM (inactive) in [6]. The GI50 was 60.7 µM (inactive) in experiment [7]; > 100 µM (inactive) in [8]; > 100 µM (inactive) in experiment [9]; 61.5 µM (inactive) in experiment [10]; 53 µM (inactive) in experiment [11]; 76.2 µM (inactive) in experiment [12]. Further, the GI50 in experiment [13] was > 100 µM (inactive); in [14] it was 36.3 µM (inactive); in experiment [15], 59.4 µM (inactive); in [16], > 100 µM (inactive); in experiment [17] it was 47.1 µM (inactive); in [18] it was > 100 µM (inactive). Moreover, the GI50 in experiment [19] was 34.1 µM (inactive).

Turning to `N#Cc1nc2ccccc2nc1N1CCN(c2ccc([N+](=O)[O-])cc2)CC1`, the GI50 in [1] is > 100 µM (inactive); in [2], > 100 µM (inactive); in experiment [3], 0.106 µM (active); in [4], > 100 µM (inactive); in experiment [5], > 100 µM (inactive); in experiment [6] it was > 100 µM (inactive). For the same molecule, the GI50 in experiment [7], in [8], in experiment [9], in experiment [10], in [11] and in [12] was > 100 µM (inactive) each time. For the same molecule, the GI50 in experiment [13], in experiment [14], in experiment [15], in experiment [16], in [17] and in [18] was > 100 µM (inactive) in each case. For the same molecule, the GI50 in experiment [19] is > 100 µM (inactive).

As to `COc1ccc(C2NC3=C(CCCC3)C3(C#N)C(=O)N=C(N)C23C#N)cc1` (stereo not drawn), the GI50 in experiment [1], in experiment [2], in experiment [3], in experiment [4], in experiment [5] and in [6] was > 100 µM (inactive) throughout. In addition, the GI50 in experiment [7], in [8], in experiment [9], in [10], in experiment [11] and in [12] was > 100 µM (inactive) in each case. Besides, the GI50 in [13], in experiment [14], in experiment [15], in experiment [16], in [17] and in experiment [18] was > 100 µM (inactive) throughout. Moreover, the GI50 in experiment [19] is > 100 µM (inactive).

Take `O=c1ccn(CC2(CO)CCCC2)c(=O)[nH]1`: the GI50 was > 100 µM (inactive) in [1]; > 100 µM (inactive) in experiment [2]; > 100 µM (inactive) in experiment [3]; 7.64 µM (inactive) in experiment [4]; > 100 µM (inactive) in experiment [5]; > 100 µM (inactive) in experiment [6]. Moreover, the GI50 in [7], in experiment [8], in experiment [9], in experiment [10], in experiment [11] and in experiment [12] was > 100 µM (inactive) in each case. The GI50 in experiment [13], in experiment [14], in experiment [15], in experiment [16], in [17] and in experiment [18] was > 100 µM (inactive) throughout. Besides, the GI50 in experiment [19] was > 100 µM (inactive).

In the case of `CC1(C)CC[C@]2(C(=O)O)CC[C@]3(C)C(=CC[C@@H]4[C@@]5(C)CC[C@H](OC6OC(CO)C(O)C(O)C6OC6OC(CO)C(O)C(O)C6O)C(C)(C)[C@@H]5CC[C@]43C)[C@@H]2C1` (stereo partly drawn), the GI50 is 15.5 µM (inactive) in experiment [1]; 18.5 µM (inactive) in experiment [2]; 22.5 µM (inactive) in experiment [3]; 18.5 µM (inactive) in experiment [4]; 24.9 µM (inactive) in experiment [5]; 15.5 µM (inactive) in experiment [6]. Moreover, the GI50 in [7] was 24.2 µM (inactive); in [8], 2.49 µM (inactive); in experiment [9], 26.4 µM (inactive); in [10] it was 15.4 µM (inactive); in [11], 2.38 µM (inactive); in [12], 14.6 µM (inactive). Moreover, the GI50 in experiment [13] was 28.2 µM (inactive); in experiment [14], 21.9 µM (inactive); in experiment [15], 23.2 µM (inactive); in [16], 19.3 µM (inactive); in experiment [17], 20 µM (inactive); in [18], 20.8 µM (inactive). For the same molecule, the GI50 in [19] is 21.2 µM (inactive).

As for `[N-]=[N+]=NCC(=O)c1cnc(O)nc1O`, the GI50 in [1], in experiment [2], in experiment [4], in experiment [5], in experiment [6] and in experiment [7] was > 100 µM (inactive) throughout. Besides, the GI50 in [8], in experiment [9], in experiment [10], in [11], in [12] and in [13] was > 100 µM (inactive) throughout. The GI50 in experiment [14], in experiment [15], in experiment [16], in [17], in [18] and in experiment [19] was > 100 µM (inactive) in each case.

As for `CCOC(=O)c1cnc2oc3ccc(O)cc3c2c1C`, the GI50 in experiment [1] is 29.9 µM (inactive); in experiment [2] it was 35 µM (inactive); in [3], 47.4 µM (inactive); in [4], 98.2 µM (inactive); in experiment [5], > 100 µM (inactive); in experiment [7], 35.2 µM (inactive). The GI50 in [8], in experiment [9], in experiment [10], in experiment [11], in [12] and in experiment [13] was > 100 µM (inactive) throughout. The GI50 in [14] was > 100 µM (inactive); in experiment [15], > 100 µM (inactive); in experiment [16] it was > 100 µM (inactive); in experiment [17], > 100 µM (inactive); in experiment [18], > 100 µM (inactive); in [19], 41.6 µM (inactive).
